From ChEMBL document CHEMBL3045560, “Insecticide interactions with -aminobutyric acid and nicotinic receptors: predictive aspects of structural models” (J Pestic Sci, 2008) come the findings set out here.

Series [1] can be described thus: Selectivity ratio of IC50 for recombinant human GABA receptor to IC50 for housefly GABA receptor.
In series [2] the target is T1, GABA receptor subunit (Musca domestica, UniProt Q75NA5).
T1 sequence (Q75NA5 whole entry): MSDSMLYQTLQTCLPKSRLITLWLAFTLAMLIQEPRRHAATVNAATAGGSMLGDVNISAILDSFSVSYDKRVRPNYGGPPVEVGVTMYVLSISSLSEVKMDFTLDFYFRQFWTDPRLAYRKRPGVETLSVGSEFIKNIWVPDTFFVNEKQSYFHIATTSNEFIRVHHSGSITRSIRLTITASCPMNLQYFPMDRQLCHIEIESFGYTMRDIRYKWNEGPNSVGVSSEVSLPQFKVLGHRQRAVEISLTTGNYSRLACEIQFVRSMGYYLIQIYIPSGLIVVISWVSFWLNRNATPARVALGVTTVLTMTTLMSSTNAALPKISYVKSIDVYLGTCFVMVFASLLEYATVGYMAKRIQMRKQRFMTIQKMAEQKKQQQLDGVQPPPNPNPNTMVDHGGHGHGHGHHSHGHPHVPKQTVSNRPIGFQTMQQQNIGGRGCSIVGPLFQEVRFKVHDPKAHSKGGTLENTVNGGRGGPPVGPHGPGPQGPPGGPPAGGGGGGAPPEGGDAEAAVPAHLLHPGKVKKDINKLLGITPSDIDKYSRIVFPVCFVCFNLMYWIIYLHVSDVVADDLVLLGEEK
In words: Inhibition of Musca domestica (house fly) GABA receptor.

Series [3] has as its target T2, Gamma-aminobutyric acid receptor subunit beta-3 (Homo sapiens, UniProt P28472).
T2 sequence (P28472 whole entry): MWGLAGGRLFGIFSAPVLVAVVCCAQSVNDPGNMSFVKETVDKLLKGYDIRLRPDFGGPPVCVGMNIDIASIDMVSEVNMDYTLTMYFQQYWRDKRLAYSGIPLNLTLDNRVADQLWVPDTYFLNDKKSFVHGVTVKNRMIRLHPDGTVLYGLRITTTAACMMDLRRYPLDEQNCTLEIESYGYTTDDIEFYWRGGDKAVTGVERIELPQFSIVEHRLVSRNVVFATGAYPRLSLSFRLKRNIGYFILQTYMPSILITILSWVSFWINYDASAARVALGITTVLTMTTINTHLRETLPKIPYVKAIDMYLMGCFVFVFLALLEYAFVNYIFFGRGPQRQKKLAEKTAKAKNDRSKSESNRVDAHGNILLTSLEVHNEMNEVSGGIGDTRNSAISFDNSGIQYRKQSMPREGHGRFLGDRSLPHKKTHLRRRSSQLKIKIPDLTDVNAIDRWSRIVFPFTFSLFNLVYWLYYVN
In words: Displacement of [3H]EBOB from recombinant Homo sapiens (human) GABA beta3 receptor.

For series [4], the target named is T3, GABA-A receptor; alpha-1/beta-3/gamma-2 (Homo sapiens, UniProt P14867+P18507+P28472).
T3 sequence (P14867 whole entry): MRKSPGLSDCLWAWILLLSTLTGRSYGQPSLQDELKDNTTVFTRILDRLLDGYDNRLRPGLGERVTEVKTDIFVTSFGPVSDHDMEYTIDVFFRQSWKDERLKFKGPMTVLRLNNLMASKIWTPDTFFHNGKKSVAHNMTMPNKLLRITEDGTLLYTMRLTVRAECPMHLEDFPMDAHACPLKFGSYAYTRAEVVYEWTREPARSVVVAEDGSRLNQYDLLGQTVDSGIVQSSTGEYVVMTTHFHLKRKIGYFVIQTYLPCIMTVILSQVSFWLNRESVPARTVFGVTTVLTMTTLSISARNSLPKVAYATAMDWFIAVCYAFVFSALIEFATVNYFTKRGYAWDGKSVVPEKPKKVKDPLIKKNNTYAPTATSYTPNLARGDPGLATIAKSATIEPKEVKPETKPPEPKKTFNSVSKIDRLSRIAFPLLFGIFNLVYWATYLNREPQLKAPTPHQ
T3 sequence (P18507 whole entry): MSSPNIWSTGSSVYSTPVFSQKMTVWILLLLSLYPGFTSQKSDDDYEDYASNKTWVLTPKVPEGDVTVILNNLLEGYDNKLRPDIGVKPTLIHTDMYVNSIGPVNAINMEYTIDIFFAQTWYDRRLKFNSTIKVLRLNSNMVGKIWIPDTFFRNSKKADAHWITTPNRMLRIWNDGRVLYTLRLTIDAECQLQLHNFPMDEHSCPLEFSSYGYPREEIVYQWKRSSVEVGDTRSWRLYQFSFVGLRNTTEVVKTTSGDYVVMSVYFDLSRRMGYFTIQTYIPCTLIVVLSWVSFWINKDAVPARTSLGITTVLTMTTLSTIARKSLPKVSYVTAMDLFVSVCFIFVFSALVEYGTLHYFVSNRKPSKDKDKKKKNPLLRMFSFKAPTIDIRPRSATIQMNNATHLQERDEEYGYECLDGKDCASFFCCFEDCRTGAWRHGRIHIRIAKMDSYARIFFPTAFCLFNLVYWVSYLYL
T3 sequence (P28472 whole entry): T2 sequence (P28472 whole entry)
Description: Displacement of [3H]EBOB from recombinant Homo sapiens (human) GABA alpha1beta3gamma2 receptor. It is filed as protein-complex assay.

Series [5] has as its target T4, GABA A receptor alpha-1/beta-1/gamma-2 (Homo sapiens, UniProt P14867+P18505+P18507).
T4 sequence (P14867 whole entry): T3 sequence (P14867 whole entry)
T4 sequence (P18507 whole entry): T3 sequence (P18507 whole entry)
T4 sequence (P18505 whole entry): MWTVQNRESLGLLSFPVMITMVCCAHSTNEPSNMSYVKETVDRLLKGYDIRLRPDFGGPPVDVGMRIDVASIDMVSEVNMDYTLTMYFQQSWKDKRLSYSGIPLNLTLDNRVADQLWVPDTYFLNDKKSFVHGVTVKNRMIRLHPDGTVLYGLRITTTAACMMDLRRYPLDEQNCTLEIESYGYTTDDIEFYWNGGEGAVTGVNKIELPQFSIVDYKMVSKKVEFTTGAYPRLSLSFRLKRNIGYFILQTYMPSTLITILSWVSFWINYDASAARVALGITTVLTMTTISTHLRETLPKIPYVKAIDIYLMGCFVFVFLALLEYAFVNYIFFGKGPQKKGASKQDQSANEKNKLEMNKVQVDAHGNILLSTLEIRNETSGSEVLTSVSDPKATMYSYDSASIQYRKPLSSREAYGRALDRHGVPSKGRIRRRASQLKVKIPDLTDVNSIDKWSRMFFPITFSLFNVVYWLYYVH
In words: Displacement of [3H]EBOB from recombinant Homo sapiens (human) GABA alpha1beta1gamma2 receptor. It is filed as protein-complex assay.

The target of series [6] is T5, GABA-A receptor alpha-1/beta-3 (Homo sapiens, UniProt P14867+P28472).
T5 sequence (P14867 whole entry): T3 sequence (P14867 whole entry)
T5 sequence (P28472 whole entry): T2 sequence (P28472 whole entry)
Description: Displacement of [3H]EBOB from recombinant Homo sapiens (human) GABA alpha1beta3 receptor.

Series [7] deals with Musca domestica. Description: Insecticidal activity against topically-treated Musca domestica (house fly). The series is classed as ADME, organism-based. The conditions noted are these: topical.
Series [8] addresses Gamma-aminobutyric acid receptor subunit alpha-6/beta-3 (Homo sapiens, UniProt P28472+Q16445). In words: Displacement of [3H]EBOB from recombinant Homo sapiens (human) GABA alpha6beta3 receptor. The series is classed as protein-complex assay.
A short description of series [9]: Toxicity in ip dosed Mus musculus (mouse). It is filed as organism-based. The settings on record: in vivo.
Series [10] concerns the target Gamma-aminobutyric acid receptor subunit rho-1 (Homo sapiens, UniProt P24046). Description: Displacement of [3H]EBOB from recombinant Homo sapiens (human) GABA rho1 receptor.
Series [11] addresses T6, Gamma-aminobutyric acid receptor subunit alpha-1/ beta-1 (Homo sapiens, UniProt P14867+P18505).
T6 sequence (P14867 whole entry): T3 sequence (P14867 whole entry)
T6 sequence (P18505 whole entry): T4 sequence (P18505 whole entry)
Description: Displacement of [3H]EBOB from recombinant Homo sapiens (human) GABA alpha1beta1 receptor. The series is classed as protein-complex assay.

In series [12] the target is GABA-A receptor; alpha-6/beta-3/gamma-2 (Homo sapiens, UniProt P18507+P28472+Q16445). In words: Displacement of [3H]EBOB from recombinant Homo sapiens (human) GABA alpha6beta3gamma2 receptor. The series is classed as protein-complex assay.
GABA-A receptor; alpha-6/beta-3/gamma-2, sequence (Q16445 whole entry, one chain of several): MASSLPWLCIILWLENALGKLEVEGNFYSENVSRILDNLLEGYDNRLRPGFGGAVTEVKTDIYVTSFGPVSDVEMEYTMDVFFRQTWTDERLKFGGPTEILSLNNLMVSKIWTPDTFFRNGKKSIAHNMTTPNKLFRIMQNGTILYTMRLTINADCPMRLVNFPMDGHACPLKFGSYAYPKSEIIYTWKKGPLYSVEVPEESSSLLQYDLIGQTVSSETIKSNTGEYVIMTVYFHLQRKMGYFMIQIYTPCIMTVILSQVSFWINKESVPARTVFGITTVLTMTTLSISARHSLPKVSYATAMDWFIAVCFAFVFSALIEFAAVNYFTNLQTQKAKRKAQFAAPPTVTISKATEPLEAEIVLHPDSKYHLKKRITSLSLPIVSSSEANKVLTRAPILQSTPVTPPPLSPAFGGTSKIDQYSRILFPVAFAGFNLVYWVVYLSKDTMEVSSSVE
Series [13] in a line: Inhibition of recombinant Homo sapiens (human) GABA receptor.

Gamma-aminobutyric acid receptor subunit alpha-6/beta-3, sequence (Q16445 whole entry, one chain of several): as above
Gamma-aminobutyric acid receptor subunit rho-1, sequence (P24046 whole entry): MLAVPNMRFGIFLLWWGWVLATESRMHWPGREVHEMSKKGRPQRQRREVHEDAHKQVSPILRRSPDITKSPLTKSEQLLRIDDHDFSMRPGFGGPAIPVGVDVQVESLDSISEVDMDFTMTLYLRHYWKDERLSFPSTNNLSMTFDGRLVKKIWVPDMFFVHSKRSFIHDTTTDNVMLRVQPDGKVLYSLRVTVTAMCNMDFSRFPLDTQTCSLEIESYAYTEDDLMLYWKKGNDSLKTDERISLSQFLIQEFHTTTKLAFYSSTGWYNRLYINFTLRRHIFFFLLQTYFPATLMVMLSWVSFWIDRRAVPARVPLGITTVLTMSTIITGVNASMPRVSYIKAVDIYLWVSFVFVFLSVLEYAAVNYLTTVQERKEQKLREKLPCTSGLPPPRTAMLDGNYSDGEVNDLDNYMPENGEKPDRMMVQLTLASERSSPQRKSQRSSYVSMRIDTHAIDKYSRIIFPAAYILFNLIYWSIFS

With `C#Cc1ccc(C23OCC(CCC)(CO2)CO3)cc1`, in series [1], the Ratio IC50 came out at 5.

On to `O=S1OC[C@@H]2[C@H](CO1)[C@@]1(Cl)C(Cl)=C(Cl)[C@]2(Cl)C1(Cl)Cl` (stereo partly drawn) [ALPHA-ENDOSULFAN], for which the IC50 in [2] turned out to be 0.01 µM; in [3], 0.00047 µM; in series [4], 0.016 µM; in series [5], 0.04 µM; in series [6], 0.0083 µM; in [8], 0.004 µM. Further, the IC50 worked out at 0.8 µM in series [10], 0.117 µM in [11], 0.0046 µM in series [12] and 0.0073 µM in [13]. In addition, the Ratio IC50 in [1] is 0.73. The LD50 stood at 5.5 mg/kg in series [7] and 10 mg/kg in series [9].

In the case of `N#Cc1nn(-c2c(Cl)cc(C(F)(F)F)cc2Cl)c(N)c1[S+]([O-])C(F)(F)F` (stereo not given) [FIPRONIL], the IC50 in series [2] worked out at 0.0023 µM; in [3], 0.0024 µM; in series [4], 0.033 µM; in series [5], 2.8 µM; in series [6], 0.028 µM; in series [8] it was 0.0031 µM. Besides, the IC50 in series [10] is over 10 µM; in series [11], 7.7 µM; in [12], 0.017 µM; in [13], 2.5 µM. Moreover, in series [1], the Ratio IC50 stood at 1090. Also, the median lethal dose (LD50) in series [7] came out at 0.25 mg/kg; in series [9] it was 32 mg/kg.

For `Cl[C@H]1[C@H](Cl)[C@@H](Cl)[C@@H](Cl)[C@H](Cl)[C@H]1Cl` [LINDANE], the IC50 in series [2] is 0.011 µM; in [3], 0.0009 µM; in series [4], 0.021 µM; in [5], 0.067 µM; in [6], 0.012 µM; in series [8], 0.0013 µM. Moreover, the IC50 stood at 0.091 µM in series [10], 0.112 µM in series [11], 0.0049 µM in [12] and 0.306 µM in series [13]. In [1], the Ratio IC50 worked out at 28. Besides, the LD50 in series [7] worked out at 5.5 mg/kg; in series [9], 40 mg/kg.
